# Calls of active or inactive are those of the source. No cut-off for these calls is given here.
# What was measured:
# [1] = Inhibition of wild type Candida albicans Fructose-1,6-Bisphosphate Aldolase transfected in Escherichia coli BL21 (DE3) incubated for 3 mins in presence of NADH by spectrophotometric analysis
# Candida albicans [2] = assay: Antifungal activity against fluconazole resistant Candida albicans 103 incubated for 48 hrs by CLSI based broth microdilution method; format: functional
# Candida albicans [3] = assay: Antifungal activity against azole-resistant Candida albicans 030410 assessed as inhibition of fungal filamentation by measuring reduction in yeast-hypha transition at 32 ug/ml by microscopic analysis; format: functional, organism-based; details: dose 32.0 µg/ml
# Candida albicans [4] = assay: Antifungal activity against fluconazole resistant Candida albicans 904 incubated for 48 hrs by CLSI based broth microdilution method; format: functional
# Candida albicans [5] = assay: Antifungal activity against fluconazole resistant Candida albicans 7781 incubated for 48 hrs by CLSI based broth microdilution method; format: functional
# Candida albicans [6] = assay: Antibiofilm activity against azole resistant Candida albicans 0304103 assessed as inhibition of biofilm formation by XTT assay; format: functional, organism-based; details: dose 0-64 µg/ml
# Candida albicans [7] = assay: Antifungal activity against Candida albicans SC5314 incubated for 48 hrs by CLSI based broth microdilution method; format: functional
# Candida albicans [8] = assay: Inhibition of wild type Candida albicans Fructose-1,6-Bisphosphate Aldolase transfected in Escherichia coli BL21 (DE3) at 50 uM incubated for 3 mins in presence of NADH by spectrophotometric analysis relative to control
# Candida albicans [9] = assay: Inhibition of wild type Candida albicans Fructose-1,6-Bisphosphate Aldolase transfected in Escherichia coli BL21 (DE3) at 100 uM incubated for 3 mins in presence of NADH by spectrophotometric analysis relative to control
# [10] = Cytotoxicity against human HaCaT cells; format: toxicity, cell-based
# Candida albicans [11] = assay: Binding affinity to Candida albicans Fructose-1,6-Bisphosphate Aldolase assessed as ratio of kinact/Ki incubated for 12 to 40 mins by NADH-linked enzymatic assay; details: time 12-40 min
# [12] = Binding affinity to Candida albicans Fructose-1,6-Bisphosphate Aldolase assessed as inhibition constant incubated for 12 to 40 mins by NADH-linked enzymatic assay
# Candida albicans [13] = assay: Binding affinity to Candida albicans Fructose-1,6-Bisphosphate Aldolase assessed as Kinact incubated for 12 to 40 mins by NADH-linked enzymatic assay; details: time 12-40 min
# Candida albicans [14] = assay: Selectivity ratio of IC50 for inhibition of Candida albicans Fructose-1,6-Bisphosphate Aldolase C292S mutant to IC50 for inhibition of wild type Candida albicans Fructose-1,6-Bisphosphate Aldolase
# [15] = Inhibition of Candida albicans Fructose-1,6-Bisphosphate Aldolase C292S mutant transfected in Escherichia coli BL21 (DE3) incubated for 3 mins in presence of NADH by spectrophotometric analysis
# [16] = Inhibition of Candida albicans Fructose-1,6-Bisphosphate Aldolase C157S mutant transfected in Escherichia coli BL21 (DE3) incubated for 3 mins in presence of NADH by spectrophotometric analysis
# [17] = Inhibition of Candida albicans Fructose-1,6-Bisphosphate Aldolase C111S mutant transfected in Escherichia coli BL21 (DE3) incubated for 3 mins in presence of NADH by spectrophotometric analysis
SMILES,IC50 [1] [nM],MIC80 (Candida albicans [2]) [µg/mL],MIC80 (Candida albicans [4]) [µg/mL],MIC80 (Candida albicans [5]) [µg/mL],MIC80 (Candida albicans [7]) [µg/mL],further results
O=c1c2ccccc2[se]n1-c1ccc(-n2ccnc2)cc1,45.8,4,4,4,4,Activity (Candida albicans [3]): Active; Activity (Candida albicans [6]): Dose-Dependent Effect
O=c1c2ccccc2[se]n1Cc1ccccc1,118,4,4,4,2,–
Cn1sc(=O)n(Cc2ccccc2)c1=O,–,–,–,–,–,inhibition (Candida albicans [8]): 53.7%
COC(=O)c1ccc(-n2[se]c3ccccc3c2=O)cc1,120,4,8,8,8,–
O=C1c2ccccc2CN1Cc1ccccc1,> 100000,> 64,> 64,> 64,> 64,inhibition (Candida albicans [9]): < 50%
OC(Cn1cncn1)(Cn1cncn1)c1ccc(F)cc1F [FLUCONAZOLE],–,> 64,> 64,> 64,0.25,Activity (Candida albicans [3]): inactive; Activity (Candida albicans [6]): Active
CC(=O)Nc1ccc(S(=O)(=O)n2sc3ccccc3c2=O)cc1,> 50000,–,–,–,–,inhibition (Candida albicans [8]): < 50%
COC(=O)/C=C/C(=O)OC,–,–,–,–,–,inhibition (Candida albicans [8]): 0.58%
O=c1c2ccccc2sn1-c1ccccc1,242,–,–,–,–,IC50 [10]: > 32000 nM
CCN(CC)C(=S)SSC(=S)N(CC)CC,–,–,–,–,–,inhibition (Candida albicans [8]): 83%
O=C(NCc1ccccc1)N1Cc2ccccc2C1=O,> 100000,> 64,> 64,> 64,> 64,inhibition (Candida albicans [9]): < 50%
Cc1ccc(-n2[se]c3ccccc3c2=O)cc1,13.3,2,4,2,4,IC50 [10]: > 32000 nM
C[C@@H]1O[C@@H]1P(=O)(O)O,–,–,–,–,–,inhibition (Candida albicans [8]): 0.32%
CC(C)C[C@H](NC(=O)[C@H](Cc1ccccc1)NC(=O)c1cnccn1)B(O)O,–,–,–,–,–,inhibition (Candida albicans [8]): -0.52%
O=c1c2ccccc2[se]n1-c1ccc(Cl)cc1Cl,76,2,4,2,4,IC50 [10]: > 32000 nM
NC(=O)c1ccc(-n2[se]c3ccccc3c2=O)cc1,85,64,64,64,64,–
O=C(NCc1ccccc1)n1[se]c2ccccc2c1=O,97.3,8,16,8,16,–
O=c1c2ccccc2sn1S(=O)(=O)c1ccccc1,> 50000,–,–,–,–,inhibition (Candida albicans [8]): < 50%
O=C(C(=O)n1sc2ccccc2c1=O)c1ccccc1,15700,–,–,–,–,–
O=c1c2ccccc2[se]n1-c1ccc(N2CCOCC2)cc1,130,–,–,–,–,–
CCCCc1ccc(-n2[se]c3ccccc3c2=O)cc1,100,4,8,4,8,–
O=c1[nH]sc2ccccc12,> 5000,–,–,–,–,inhibition (Candida albicans [8]): < 50%
O=C(O)CCCCC1CCSS1 (centres undefined),–,–,–,–,–,inhibition (Candida albicans [8]): 80%
COc1ccc(-n2[se]c3ccccc3c2=O)cc1,91,4,4,4,4,–

SMILES,IC50 [1] [nM],MIC80 (Candida albicans [2]) [µg/mL],MIC80 (Candida albicans [4]) [µg/mL],MIC80 (Candida albicans [5]) [µg/mL],MIC80 (Candida albicans [7]) [µg/mL],further results
O=c1c2ccccc2[se]n1-c1ccc(-n2cncn2)cc1,38,8,4,8,8,Ratio (Candida albicans [11]): 10.4 M⁻¹ s⁻¹; IC50 [10]: > 32000 nM; Ki [12]: 486 nM; Kinact (Candida albicans [13]): 0.00506 s⁻¹
O=c1c2ccccc2[se]n1-c1ccc(F)cc1F,84,4,4,2,4,IC50 [10]: > 32000 nM
O=c1c2ccccc2[se]n1-c1nncs1,155,–,–,–,–,Ratio IC50 (Candida albicans [14]): 11.3; IC50 [15]: 1750 nM; IC50 [16]: 227 nM; IC50 [17]: 303 nM
O=C(O)c1ccc(-n2[se]c3ccccc3c2=O)cc1,44.5,64,64,64,64,–
O=C(c1ccccc1)c1ccc(-n2[se]c3ccccc3c2=O)cc1,31,4,4,4,4,Activity (Candida albicans [3]): Active; Activity (Candida albicans [6]): Dose-Dependent Effect
O=c1c2ccccc2[se]n1-c1nccs1,113,8,4,8,4,–
O=c1c2ccccc2[se]n1-c1ccccn1,72.7,4,2,4,4,–
CC(=O)c1ccc(-n2[se]c3ccccc3c2=O)cc1,17.3,8,16,8,16,–
O=C(Cc1ccccc1)n1sc2ccccc2c1=O,488,–,–,–,–,–
N#Cc1ccc(-n2[se]c3ccccc3c2=O)cc1,38.9,16,16,8,8,–
CCc1ccc(-n2[se]c3ccccc3c2=O)cc1,92,1,4,2,4,Activity (Candida albicans [3]): Active; IC50 [10]: > 32000 nM; Activity (Candida albicans [6]): Dose-Dependent Effect
O=c1c2ccccc2[se]n1-c1cccc(C(F)(F)F)c1,84,4,2,4,4,IC50 [10]: > 32000 nM
CCCCCCNC(=O)n1cc(F)c(=O)[nH]c1=O,–,–,–,–,–,inhibition (Candida albicans [8]): 62.2%
O=C(NCc1ccccc1)n1sc2ccccc2c1=O,370,–,–,–,–,–
CCCCNC(=O)Nc1ccc(-n2[se]c3ccccc3c2=O)cc1,93,8,8,8,8,–
O=c1c2ccccc2[se]n1-c1ccc(-c2ccccc2)cc1,60,64,64,64,32,–
O=C(NC1CCCCC1)n1sc2ccccc2c1=O,1110,–,–,–,–,–
O=c1c2ccccc2[se]n1Nc1ccccc1,96.3,–,–,–,–,–
Nc1ccc(-n2[se]c3ccccc3c2=O)cc1,82.3,8,8,8,8,Ratio (Candida albicans [11]): 3560 M⁻¹ s⁻¹; IC50 [10]: > 32000 nM; Ki [12]: 559 nM; Kinact (Candida albicans [13]): 0.00199 s⁻¹
O=c1c2ccccc2[se]n1CCc1ccccc1,22.5,4,4,2,4,–
O=c1c2ccccc2[se]n1-c1ccc(C(F)(F)F)cc1,13,4,8,4,4,Ratio (Candida albicans [11]): 15.9 M⁻¹ s⁻¹; IC50 [10]: > 32000 nM; Ki [12]: 58 nM; Kinact (Candida albicans [13]): 0.00092 s⁻¹
CC(C)c1ccc(-n2[se]c3ccccc3c2=O)cc1,110,2,4,2,4,IC50 [10]: > 32000 nM
O=C1c2ccccc2CN1c1ccccc1,> 100000,> 64,> 64,> 64,> 64,inhibition (Candida albicans [9]): < 50%
